Reference: ChEMBL document CHEMBL5465560, “Selectivity Literature for EUbOPEN Chemogenomic Library” (2024)
Values belong to the compound of their own block, whether it stands above or below them.

Legend:
[1] = biological target: Tyrosine-protein kinase receptor UFO (Homo sapiens) (UniProt P30530); assay: Selectivity interaction (KinomeScan (DiscoverX)) EUB0001049a AXL; conditions: at 1 µM
[2] = biological target: T1, Mitogen-activated protein kinase kinase kinase 2 (Homo sapiens) (UniProt Q9Y2U5); assay: Selectivity interaction (Ambit KINOMEscan and KiNATiv profiling in Jurkat cells) EUB0000090b MAP3K2; assay type: cell-based; conditions: at 1 µM
T1 sequence (whole entry): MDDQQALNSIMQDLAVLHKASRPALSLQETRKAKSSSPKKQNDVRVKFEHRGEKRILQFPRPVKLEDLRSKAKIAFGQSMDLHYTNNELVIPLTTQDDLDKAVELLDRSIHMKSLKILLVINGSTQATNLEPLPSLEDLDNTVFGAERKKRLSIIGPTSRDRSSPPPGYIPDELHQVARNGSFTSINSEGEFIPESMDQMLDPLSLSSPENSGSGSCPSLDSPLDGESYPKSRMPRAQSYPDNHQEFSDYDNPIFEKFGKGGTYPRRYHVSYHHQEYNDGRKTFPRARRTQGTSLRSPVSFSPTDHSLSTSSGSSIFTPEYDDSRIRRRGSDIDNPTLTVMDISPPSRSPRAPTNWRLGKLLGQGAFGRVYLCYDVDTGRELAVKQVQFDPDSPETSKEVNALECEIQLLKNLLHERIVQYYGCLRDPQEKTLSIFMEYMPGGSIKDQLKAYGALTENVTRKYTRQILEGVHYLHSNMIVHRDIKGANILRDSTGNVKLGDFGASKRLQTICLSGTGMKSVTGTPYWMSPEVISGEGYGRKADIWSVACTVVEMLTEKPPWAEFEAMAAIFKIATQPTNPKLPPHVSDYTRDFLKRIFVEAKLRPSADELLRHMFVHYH

[3] = biological target: Serine/threonine-protein kinase WNK3 (Homo sapiens) (UniProt Q9BYP7); assay: Selectivity interaction (ActivX KiNativ screen (kinase selectivity in THP-1 cell lysates)) EUB0000639a WNK3; assay type: subcellular; conditions: lysate
Serine/threonine-protein kinase WNK3 (Homo sapiens), sequence (Q9BYP7 whole entry, the tested form may be a part): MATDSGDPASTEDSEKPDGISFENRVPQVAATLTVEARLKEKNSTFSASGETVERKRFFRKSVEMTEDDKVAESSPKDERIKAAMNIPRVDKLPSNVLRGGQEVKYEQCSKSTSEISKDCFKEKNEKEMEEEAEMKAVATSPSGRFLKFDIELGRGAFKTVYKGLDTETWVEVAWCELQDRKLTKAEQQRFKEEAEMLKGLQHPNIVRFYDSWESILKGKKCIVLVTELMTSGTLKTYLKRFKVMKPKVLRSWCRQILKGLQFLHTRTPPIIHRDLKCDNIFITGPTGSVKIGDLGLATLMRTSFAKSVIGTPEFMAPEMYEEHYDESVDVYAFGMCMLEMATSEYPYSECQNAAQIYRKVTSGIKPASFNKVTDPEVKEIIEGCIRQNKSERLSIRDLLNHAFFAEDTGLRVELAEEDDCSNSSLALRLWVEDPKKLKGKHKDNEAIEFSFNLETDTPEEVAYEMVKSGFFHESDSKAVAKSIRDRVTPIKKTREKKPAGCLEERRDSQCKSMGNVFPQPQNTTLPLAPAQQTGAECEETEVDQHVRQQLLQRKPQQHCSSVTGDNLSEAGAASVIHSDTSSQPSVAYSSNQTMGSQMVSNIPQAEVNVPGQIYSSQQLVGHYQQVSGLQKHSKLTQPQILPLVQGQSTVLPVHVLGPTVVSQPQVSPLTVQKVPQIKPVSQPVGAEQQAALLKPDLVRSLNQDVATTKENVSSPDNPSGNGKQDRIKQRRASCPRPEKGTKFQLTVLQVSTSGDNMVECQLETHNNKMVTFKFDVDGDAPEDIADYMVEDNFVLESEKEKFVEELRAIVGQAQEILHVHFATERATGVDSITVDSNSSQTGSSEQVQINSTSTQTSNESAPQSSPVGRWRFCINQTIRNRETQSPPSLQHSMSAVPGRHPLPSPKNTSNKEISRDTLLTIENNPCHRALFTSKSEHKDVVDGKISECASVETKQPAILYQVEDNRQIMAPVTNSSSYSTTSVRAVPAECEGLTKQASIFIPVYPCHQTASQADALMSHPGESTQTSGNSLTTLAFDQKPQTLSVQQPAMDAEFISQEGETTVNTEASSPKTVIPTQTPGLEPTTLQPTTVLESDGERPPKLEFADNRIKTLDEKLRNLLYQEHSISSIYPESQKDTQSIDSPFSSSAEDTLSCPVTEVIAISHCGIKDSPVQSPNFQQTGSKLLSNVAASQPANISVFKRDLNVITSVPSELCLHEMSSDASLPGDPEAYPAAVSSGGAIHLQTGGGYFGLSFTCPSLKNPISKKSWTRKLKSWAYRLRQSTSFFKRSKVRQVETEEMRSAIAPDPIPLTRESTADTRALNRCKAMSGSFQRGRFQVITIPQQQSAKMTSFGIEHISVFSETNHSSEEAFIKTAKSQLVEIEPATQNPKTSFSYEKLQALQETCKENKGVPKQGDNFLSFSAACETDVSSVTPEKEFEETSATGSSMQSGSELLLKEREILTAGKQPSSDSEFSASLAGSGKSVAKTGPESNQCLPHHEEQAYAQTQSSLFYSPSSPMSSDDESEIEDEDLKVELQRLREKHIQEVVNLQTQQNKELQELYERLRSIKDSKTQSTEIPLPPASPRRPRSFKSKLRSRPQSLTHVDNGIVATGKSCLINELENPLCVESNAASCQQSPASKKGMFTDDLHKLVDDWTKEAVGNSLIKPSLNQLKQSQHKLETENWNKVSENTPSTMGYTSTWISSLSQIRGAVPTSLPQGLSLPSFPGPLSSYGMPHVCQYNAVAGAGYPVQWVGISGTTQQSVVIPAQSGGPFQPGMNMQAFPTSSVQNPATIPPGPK

[4] = biological target: LIM domain kinase 2 (Homo sapiens) (UniProt P53671); assay: Selectivity interaction (KinomeScan (DiscoverX)) EUB0000695a LIMK2; conditions: at 100 nM
LIM domain kinase 2 (Homo sapiens), sequence (P53671 whole entry, looked up, the tested form may be a part): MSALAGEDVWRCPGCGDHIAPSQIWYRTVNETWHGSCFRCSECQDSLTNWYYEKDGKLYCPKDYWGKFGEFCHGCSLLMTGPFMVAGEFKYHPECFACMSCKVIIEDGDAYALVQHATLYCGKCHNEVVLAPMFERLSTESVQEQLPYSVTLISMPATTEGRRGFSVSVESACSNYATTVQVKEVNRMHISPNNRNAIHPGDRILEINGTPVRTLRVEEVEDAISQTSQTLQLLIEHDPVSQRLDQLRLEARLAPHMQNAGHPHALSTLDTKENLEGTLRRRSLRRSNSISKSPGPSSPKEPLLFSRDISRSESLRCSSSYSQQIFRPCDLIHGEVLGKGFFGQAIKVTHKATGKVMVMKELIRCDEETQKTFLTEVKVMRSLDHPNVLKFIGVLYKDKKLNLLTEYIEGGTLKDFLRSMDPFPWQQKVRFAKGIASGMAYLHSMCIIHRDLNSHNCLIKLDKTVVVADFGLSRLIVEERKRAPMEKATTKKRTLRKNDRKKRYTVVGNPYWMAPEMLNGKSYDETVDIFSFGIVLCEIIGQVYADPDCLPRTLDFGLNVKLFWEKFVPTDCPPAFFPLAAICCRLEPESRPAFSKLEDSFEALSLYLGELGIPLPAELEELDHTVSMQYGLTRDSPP

[5] = biological target: Sigma non-opioid intracellular receptor 1 (Homo sapiens) (UniProt Q99720); assay: Selectivity interaction (Eurofins CEREP Diversity Profile (receptors and ion channels)) EUB0000279b SIGMAR1; conditions: at 10 µM
[6] = biological target: Glucocorticoid receptor (Homo sapiens) (UniProt P04150); assay: Selectivity interaction (Eurofins CEREP Diversity Profile (receptors and ion channels)) EUB0000279b NR3C1; conditions: at 10 µM
[7] = biological target: Cyclin-dependent kinase 11B (Homo sapiens) (UniProt P21127); conditions: at 10 µM
[8] = biological target: Cyclin-dependent kinase 16 (Homo sapiens) (UniProt Q00536); conditions: at 10 µM
Cyclin-dependent kinase 16 (Homo sapiens), sequence (Q00536 whole entry): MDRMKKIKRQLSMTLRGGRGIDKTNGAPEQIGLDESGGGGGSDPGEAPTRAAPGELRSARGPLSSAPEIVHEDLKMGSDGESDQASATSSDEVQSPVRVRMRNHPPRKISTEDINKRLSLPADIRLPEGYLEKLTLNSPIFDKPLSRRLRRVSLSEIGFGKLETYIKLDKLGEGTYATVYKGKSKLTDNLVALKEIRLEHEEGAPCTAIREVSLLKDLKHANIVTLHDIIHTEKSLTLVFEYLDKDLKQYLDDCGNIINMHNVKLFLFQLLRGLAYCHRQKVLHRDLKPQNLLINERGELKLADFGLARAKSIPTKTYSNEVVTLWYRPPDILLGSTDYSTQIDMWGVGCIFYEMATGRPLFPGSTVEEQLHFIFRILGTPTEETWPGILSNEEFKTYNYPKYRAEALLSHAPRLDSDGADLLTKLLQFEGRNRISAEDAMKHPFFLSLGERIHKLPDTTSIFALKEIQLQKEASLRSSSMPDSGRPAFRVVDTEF

[9] = biological target: Protein kinase C theta type (Homo sapiens, UniProt Q04759); conditions: at 10 µM
Protein kinase C theta type, sequence (Q04759 whole entry, looked up): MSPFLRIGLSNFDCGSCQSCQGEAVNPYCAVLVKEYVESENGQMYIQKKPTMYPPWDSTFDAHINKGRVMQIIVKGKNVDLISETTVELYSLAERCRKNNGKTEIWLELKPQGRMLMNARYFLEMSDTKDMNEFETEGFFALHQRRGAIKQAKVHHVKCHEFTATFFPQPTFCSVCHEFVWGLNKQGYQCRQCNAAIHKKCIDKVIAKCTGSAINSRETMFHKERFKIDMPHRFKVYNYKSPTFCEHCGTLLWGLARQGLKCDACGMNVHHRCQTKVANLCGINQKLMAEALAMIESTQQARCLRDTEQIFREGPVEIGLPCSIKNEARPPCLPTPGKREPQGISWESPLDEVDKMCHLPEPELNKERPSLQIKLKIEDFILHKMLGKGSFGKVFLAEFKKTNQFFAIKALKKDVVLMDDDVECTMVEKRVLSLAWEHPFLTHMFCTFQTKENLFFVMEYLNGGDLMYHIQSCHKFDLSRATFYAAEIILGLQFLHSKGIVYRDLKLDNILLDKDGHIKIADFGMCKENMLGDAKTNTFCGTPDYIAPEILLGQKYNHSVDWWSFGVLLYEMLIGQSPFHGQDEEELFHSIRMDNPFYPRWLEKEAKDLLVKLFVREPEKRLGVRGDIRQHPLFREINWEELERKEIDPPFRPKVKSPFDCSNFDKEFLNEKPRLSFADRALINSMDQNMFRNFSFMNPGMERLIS

[10] = biological target: Phosphatidylinositol 4-phosphate 5-kinase type-1 alpha (Homo sapiens) (UniProt Q99755); assay: Selectivity interaction (KinomeScan (DiscoverX)) EUB0000229b PIP5K1A; conditions: at 10 µM
[11] = biological target: Tyrosine-protein kinase SYK (Homo sapiens, UniProt P43405); assay: Selectivity interaction (ProQinase) EUB0000171b SYK
[12] = biological target: SRSF protein kinase 1 (Homo sapiens, UniProt Q96SB4); assay: Selectivity interaction (KinomeScan (DiscoverX)) EUB0000092b SRPK1; conditions: at 10 µM
[13] = biological target: MAP/microtubule affinity-regulating kinase 3 (Homo sapiens) (UniProt P27448); assay: Selectivity interaction (KinomeScan (DiscoverX)) EUB0000045b MARK3
MAP/microtubule affinity-regulating kinase 3 (Homo sapiens), sequence (P27448 whole entry, looked up): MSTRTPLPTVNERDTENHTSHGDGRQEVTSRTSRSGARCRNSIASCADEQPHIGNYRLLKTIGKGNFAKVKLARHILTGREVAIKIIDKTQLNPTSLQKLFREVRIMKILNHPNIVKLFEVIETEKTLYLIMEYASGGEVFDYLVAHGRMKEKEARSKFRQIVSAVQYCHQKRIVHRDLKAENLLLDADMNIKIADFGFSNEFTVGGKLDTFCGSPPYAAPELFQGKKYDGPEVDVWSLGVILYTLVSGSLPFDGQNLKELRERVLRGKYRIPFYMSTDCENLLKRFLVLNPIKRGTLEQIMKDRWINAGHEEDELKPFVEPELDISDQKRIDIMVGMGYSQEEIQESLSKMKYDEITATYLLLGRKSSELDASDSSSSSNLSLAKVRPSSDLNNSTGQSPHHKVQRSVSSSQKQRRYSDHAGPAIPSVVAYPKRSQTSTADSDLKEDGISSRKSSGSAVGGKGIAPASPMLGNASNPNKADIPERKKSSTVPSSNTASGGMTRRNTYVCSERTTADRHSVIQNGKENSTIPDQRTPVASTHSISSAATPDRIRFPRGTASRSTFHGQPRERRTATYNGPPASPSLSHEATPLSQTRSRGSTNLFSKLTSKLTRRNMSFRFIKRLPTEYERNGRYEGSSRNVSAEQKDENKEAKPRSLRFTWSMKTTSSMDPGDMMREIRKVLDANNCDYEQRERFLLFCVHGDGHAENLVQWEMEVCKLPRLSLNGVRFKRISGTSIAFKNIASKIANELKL

[14] = biological target: Serine/threonine-protein kinase OSR1 (Homo sapiens) (UniProt O95747); assay: Selectivity interaction (KinomeScan (DiscoverX)) EUB0000045b OXSR1
Serine/threonine-protein kinase OSR1 (Homo sapiens), sequence (O95747 2-527 limits assumed): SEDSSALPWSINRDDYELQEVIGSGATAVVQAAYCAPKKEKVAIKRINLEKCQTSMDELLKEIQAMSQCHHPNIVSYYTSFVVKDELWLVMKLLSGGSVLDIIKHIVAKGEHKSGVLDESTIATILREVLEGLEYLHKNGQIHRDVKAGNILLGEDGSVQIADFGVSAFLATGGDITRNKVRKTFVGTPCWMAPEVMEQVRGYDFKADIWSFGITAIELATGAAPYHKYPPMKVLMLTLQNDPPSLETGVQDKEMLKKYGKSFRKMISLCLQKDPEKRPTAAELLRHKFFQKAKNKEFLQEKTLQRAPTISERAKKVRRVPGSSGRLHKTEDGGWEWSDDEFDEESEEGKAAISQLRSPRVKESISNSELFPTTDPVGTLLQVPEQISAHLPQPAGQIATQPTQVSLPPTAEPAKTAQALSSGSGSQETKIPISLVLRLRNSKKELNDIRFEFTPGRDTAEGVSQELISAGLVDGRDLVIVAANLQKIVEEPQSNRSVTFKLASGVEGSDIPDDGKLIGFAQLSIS

[15] = biological target: Cyclin-dependent kinase 8 (Homo sapiens, UniProt P49336); assay: Selectivity interaction (KinomeScan (DiscoverX)) EUB0001619a CDK8; conditions: at 1 µM
[16] = biological target: T2, Interleukin-1 receptor-associated kinase 4 (Homo sapiens) (UniProt Q9NWZ3); assay: Selectivity interaction (KinomeScan (DiscoverX)) EUB0001619a IRAK4; conditions: at 1 µM
T2 sequence (whole entry): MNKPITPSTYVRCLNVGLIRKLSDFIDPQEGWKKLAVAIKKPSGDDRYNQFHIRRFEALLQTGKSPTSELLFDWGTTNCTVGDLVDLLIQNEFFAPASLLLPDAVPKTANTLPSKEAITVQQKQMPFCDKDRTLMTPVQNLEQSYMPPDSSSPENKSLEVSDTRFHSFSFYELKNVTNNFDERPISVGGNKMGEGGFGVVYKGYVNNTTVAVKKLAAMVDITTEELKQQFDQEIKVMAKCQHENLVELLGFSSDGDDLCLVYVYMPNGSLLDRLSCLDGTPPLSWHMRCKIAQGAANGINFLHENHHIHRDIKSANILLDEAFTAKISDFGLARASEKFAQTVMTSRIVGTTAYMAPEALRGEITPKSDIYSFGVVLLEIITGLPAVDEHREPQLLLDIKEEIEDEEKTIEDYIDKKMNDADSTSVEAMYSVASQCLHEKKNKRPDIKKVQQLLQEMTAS

[17] = biological target: T3, Interleukin-1 receptor-associated kinase 3 (Homo sapiens) (UniProt Q9Y616); assay: Selectivity interaction (ActivX KiNativ screen (ex vivo kinase selectivity in human PBMCs)) EUB0001619a IRAK3; assay type: cell-based; conditions: PBMC, at 1 µM
T3 sequence (whole entry): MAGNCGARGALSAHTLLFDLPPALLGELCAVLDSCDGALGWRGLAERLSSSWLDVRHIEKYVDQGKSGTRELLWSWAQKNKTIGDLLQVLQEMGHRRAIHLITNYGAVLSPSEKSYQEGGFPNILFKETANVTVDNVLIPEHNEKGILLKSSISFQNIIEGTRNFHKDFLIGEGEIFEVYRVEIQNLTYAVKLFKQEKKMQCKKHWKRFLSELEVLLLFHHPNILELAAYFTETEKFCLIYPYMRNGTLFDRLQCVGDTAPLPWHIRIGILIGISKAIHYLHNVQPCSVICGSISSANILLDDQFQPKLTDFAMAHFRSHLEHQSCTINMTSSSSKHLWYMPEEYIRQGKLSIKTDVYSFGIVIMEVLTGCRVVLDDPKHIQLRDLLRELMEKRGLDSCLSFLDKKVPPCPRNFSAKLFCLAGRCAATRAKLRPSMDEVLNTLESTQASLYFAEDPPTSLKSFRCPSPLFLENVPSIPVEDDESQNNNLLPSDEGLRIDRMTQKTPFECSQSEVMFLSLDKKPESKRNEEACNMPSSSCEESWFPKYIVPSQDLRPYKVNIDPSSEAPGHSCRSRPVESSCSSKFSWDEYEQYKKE

SMILES: COc1cc(Nc2nc(C)cc(-c3cnn4nc(OC)ccc34)n2)cc(C(F)(F)F)c1
% of control [1]: 100%

SMILES: CN(C)C/C=C/C(=O)Nc1ccc(C(=O)N2CCCC(Nc3ncc(Cl)c(-c4c[nH]c5ccccc45)n3)C2)cc1 (centres undefined)
% of control [2]: 99%

% of inhibition ([3]; at 0.01 µM): 3.3% | % of inhibition ([3]; at 0.04 µM): -7.4% | % of inhibition ([3]; at 0.2 µM): -12% | % of inhibition ([3]; at 1 µM): -7.7% | % of inhibition ([3]; at 5 µM): -14.5%
SMILES: CC[C@@H]1[C@H](F)C(=O)N[C@@H]1COc1nccc2cc(C(N)=O)c(OC)cc12 [ZIMLOVISERTIB]

SMILES: Cc1cc(F)c(C(=O)Nc2cccc(-c3nncn3C(C)C)n2)cc1-n1cnc(C2CC2)c1
% of control [4]: 89%

% of control [5]: 98% | % of control [6]: 94%
SMILES: CC(=O)c1cc(-c2ccccc2OCC2CC2)c2ncccn12

% of control [7]: 100% | % of control [8]: 100% | % of control [9]: 100%
SMILES: CCN(CC)CCCCNc1ncc2cc(-c3cc(OC)cc(OC)c3)c(NC(=O)NC(C)(C)C)nc2n1

SMILES: COc1cc(N(C)c2ccnc3ccc(C(F)(F)F)cc23)cc(OC)c1OC
% binding [10]: 76%

% of control ([11]; at 1 µM): 94% | % of control ([11]; at 5 µM): 86%
SMILES: C=CC(=O)Nc1cccc(C(=O)Nc2ccc(Nc3cc(-c4[nH]c(SC)nc4C)ccn3)cc2)c1

SMILES: CCC(=O)N1CCN(c2ccc(-n3c(=O)ccc4cnc5ccc(-c6cnc7ccccc7c6)cc5c43)cc2C(F)(F)F)CC1
% of control [12]: 100%

SMILES: C=CC(=O)Nc1cc(-n2c(=O)ccc3cnc4ccc(-c5ccc(NS(C)(=O)=O)cc5)cc4c32)ccc1C
% of control ([13]; at 1 µM): 75% | % of control ([13]; at 10 µM): 97% | % of control ([14]; at 1 µM): 100% | % of control ([14]; at 10 µM): 94%

SMILES: N#Cc1cccc(-c2c[nH]c3ncnc(N4CCOCC4)c23)c1
% of control [15]: 80% | % of control [16]: 69% | % of inhibition [17]: 34%
